According to patent US20250332178A1, “METHODS OF TREATING MYCOBACTERIAL INFECTIONS USING TETRACYCLINE COMPOUNDS” (priority 2018, published 2025):
Values after ≈ are worked out from the molar mass of the structure shown. Like-named read-outs stand apart in the source and are kept apart here.

What was measured:
[1] = MIC by broth microdilution in CAMHB, clinical isolates; type: cell-based, Mycobacterium chelonae; settings: for MIC: read-out: MIC
[2] = tested on: M. abscessus subsp. abscessus CIP 104536; experiment: Time-kill kinetics assay; type: cell-based
Procedure: Briefly, M. abscessus cultures were exposed to antimicrobial drugs at 4-fold increasing concentrations for 7 days at 37° C. under shaking conditions at 96 rpm. […] The drug concentrations ranged from 0.063 to 256 mg/L for both compounds. […] At day 1, 3 and 7 during drug exposure, samples were collected, centrifuged at 14000 xg to avoid anti-NTM drug carry over, serially diluted (10-fold, 10^0-10^7) and subcultured onto solid medium. […] The lower limit of detection was 5 cfu/mL (log 0.7). All experiments were performed in duplicate. Time-kill curves, as well as concentration-effect curves were generated.

[3] = Stability of antimicrobial drugs, large-plate agar diffusion assay; type: physicochemical; settings: within the first 24 hours
Procedure: Antimicrobial activity over time was assessed using the standard large-plate agar diffusion assay as previously described in detail (Bennett et al., Appl. Microbiol. 1966, 14 (2): 170-7). In short, a Staphylococcus aureus strain susceptible to omadacycline and a Micrococcus luteus strain susceptible to tigecycline were plated onto solid diagnostic sensitivity test (D.S.T.) agar (Oxoid, Hampshire, UK). A two-fold increasing standard concentration series was prepared.

[4] = tested on: Bacille Calmette Guerin (BCG); type: cell-based, Mycobacterium bovis; settings: disk: 15 μg of omadacycline
[5] = Intra-pulmonary steady-state concentrations (plasma, ELF, alveolar cells) after multiple IV doses in healthy adult subjects; type: in vivo, human; settings: human, in vivo
Procedure: The remaining 20 subjects received tigecycline as 1 intravenous dose of 100 mg administered as a 30 minute infusion at t=0, followed by 6 intravenous doses of 50 mg administered as 30 minute infusions at t=12, 24, 36, 48, 60, and 72 hours. A study completion visit was conducted on the day following the final test article dose. There was a final follow-up assessment 7 to 14 days following the subject's last dose of test article which may be completed by telephone contact or other interactive technology unless an examination was needed to evaluate adverse events or abnormalities noted at the study completion visit.
Plasma PK samples were collected pre-dose and at 0.5, 1, 1.5, 2, 3, 4, 6, 8, 12 and 24 hours post-dose on day 4. […] One BAL sample was collected from each subject on day 4. Subjects were randomized to one of the following collection times: 0.5, 1, 2, 4, 8, 12 or 24 hours post-dose.

[6] = tested on: slow-growing NTM isolates; experiment: MIC (CLSI broth dilution), all slow-growing NTM isolates; type: cell-based, nontuberculous mycobacteria; settings: small number of SGM isolates
[7] = tested on: M. abscessus subsp. abscessus CIP 104536; experiment: MIC according to CLSI guidelines; settings: Mycobacteroides abscessus, CIP104536, read-out: Minimal Inhibitory Concentration (MIC)
Procedure: Vials with M. abscessus suspensions were stored at −80° C. Cultures on solid medium were grown on Mueller Hinton II agar (BD), supplemented with 10% OADC and 0.5% glycerol for 10 days at 37° C. with 5% CO2.

[8] = Alveolar Macrophages (AM) concentration (mean ± SD)
[9] = Epithelial lining fluid (ELF) concentration (mean ± SD)
[10] = Plasma concentration (mean ± SD)
[11] = Ratio of Omadacycline Concentrations in Alveolar Cells to Plasma (Mean, SD)
[12] = Ratio of Omadacycline Concentrations in Epithelial Lining Fluid to Plasma (Mean, SD)

CN(C)c1cc(CNCC(C)(C)C)c(O)c2c1C[C@H]1C[C@H]3C(N(C)C)C(O)=C(C(N)=O)C(=O)[C@@]3(O)C(O)=C1C2=O (stereo partly drawn) [Omadacycline, (4aS,5aR,12aS)-4,7-bis(dimethylamino)-3,10,12,12a-tetrahydroxy-9-((neopentylamino)methyl)-1,11-dioxo-1,4,4a,5,5a,6,11,12a-octahydrotetracene-2-carboxamide]
MIC90 ([1]; 22 clinical isolates, read-out: MIC90): 0.25 µg/mL (≈ 0.449 µM) | MIC ([1]; isolate No. 1, MC 7323): 0.125 µg/mL (≈ 0.225 µM) | MIC ([1]; isolate No. 2, MC 7534): 0.03 µg/mL (≈ 0.0539 µM) | MIC ([1]; isolate No. 3, MC 7368): 0.03 µg/mL (≈ 0.0539 µM) | MIC ([1]; isolate No. 4, MC 7514): 0.06 µg/mL (≈ 0.108 µM) | MIC ([1]; isolate No. 5, MC 7584): 0.06 µg/mL (≈ 0.108 µM) | MIC ([1]; isolate No. 6, MC 7192): 0.015 µg/mL (≈ 0.0269 µM) | MIC ([1]; isolate No. 7, MC 7466): 0.03 µg/mL (≈ 0.0539 µM) | MIC ([1]; isolate No. 8, MC 7533): 0.25 µg/mL (≈ 0.449 µM) | MIC ([1]; isolate No. 9, MC 7579): 0.125 µg/mL (≈ 0.225 µM) | MIC ([1]; isolate No. 10, MC 7614): 0.125 µg/mL (≈ 0.225 µM) | MIC ([1]; isolate No. 11, MC 7414): 0.125 µg/mL (≈ 0.225 µM) | MIC ([1]; isolate No. 12, MC 7313): 0.125 µg/mL (≈ 0.225 µM) | MIC ([1]; isolate No. 13, MC 7281): 0.25 µg/mL (≈ 0.449 µM) | MIC ([1]; isolate No. 14, MC 7328): 0.015 µg/mL (≈ 0.0269 µM) | MIC ([1]; isolate No. 15, MC 7294): 0.25 µg/mL (≈ 0.449 µM) | MIC ([1]; isolate No. 16, MC 14-S-03): 0.06 µg/mL (≈ 0.108 µM) | MIC ([1]; isolate No. 17, MC 14-S-04): 0.06 µg/mL (≈ 0.108 µM) | MIC ([1]; isolate No. 18, MC 14-S-05): 0.125 µg/mL (≈ 0.225 µM) | MIC ([1]; isolate No. 19, MC 14-S-06): 0.03 µg/mL (≈ 0.0539 µM) | MIC ([1]; isolate No. 20, MC 14-S-07): 0.06 µg/mL (≈ 0.108 µM) | MIC ([1]; isolate No. 21, MC 35757): 0.125 µg/mL (≈ 0.225 µM) | MIC ([1]; isolate No. 22, MC 7302): 0.25 µg/mL (≈ 0.449 µM) | concentration for 1 log mycobacterial killing ([2]; after 7 days of exposure): 4.0 mg/L | concentration for 2 log mycobacterial killing ([2]; after 7 days of exposure): 4.8 mg/L | concentration for stasis (concentration-effect curve) ([2]; after 7 days of exposure): 3.3 mg/L | concentrations achieving elimination ([2]; time-kill, at day 3-7): no elimination was achieved | concentration showing inhibition of mycobacterial growth ([2]; time-kill, up to 7 days exposure): 4 mg/L | decline in concentration [3]: 20% | Results/Observations (growth) [4]: Markedly decreased growth around | Free-drug AUC72-96, Plasma (Median) [5]: 9610 ng·h/mL | AUC ([5]; AUCmean, Alveolar Cells (AC)): 302000 ng·h/mL | AUC ([5]; AUCmean, Epithelial Lining Fluid (ELF)): 17200 ng·h/mL | AUC ([5]; AUCmean, Plasma): 11700 ng·h/mL | AUC ([5]; AUCmedian, Alveolar Cells (AC)): 292000 ng·h/mL | AUC ([5]; AUCmedian, Epithelial Lining Fluid (ELF)): 16700 ng·h/mL | AUC ([5]; AUCmedian, Plasma): 11800 ng·h/mL | concentration at 0.5 h [5, 8]: 14300 ± 9300 ng/mL | concentration at 1 h [5, 8]: 12800 ± 8480 ng/mL | concentration at 2 h [5, 8]: 10800 ± 7590 ng/mL | concentration at 4 h [5, 8]: 18000 ± 7170 ng/mL | concentration at 8 h [5, 8]: 12300 ± 4700 ng/mL | concentration at 12 h [5, 8]: 12300 ± 4610 ng/mL | concentration at 24 h [5, 8]: 10400 ± 4040 ng/mL | concentration at 0.5 h [5, 9]: 1730 ± 1010 ng/mL | concentration at 1 h [5, 9]: 2250 ± 720 ng/mL | concentration at 2 h [5, 9]: 1510 ± 940 ng/mL | concentration at 4 h [5, 9]: 950 ± 330 ng/mL | concentration at 8 h [5, 9]: 580 ± 190 ng/mL | concentration at 12 h [5, 9]: 610 ± 290 ng/mL | concentration at 24 h [5, 9]: 410 ± 130 ng/mL | Kp ([5]; Penetration Ratio: total-drug ELF AUC72-96 to free-drug plasma AUC72-96 (Median)): 1.93 | Kp ([5]; Penetration ratio AC:Plasma based on AUCmean): 25.8 | Kp ([5]; Penetration ratio AC:Plasma based on AUCmedian): 24.8 | Kp ([5]; Penetration ratio ELF:Plasma based on AUCmean): 1.47 | Kp ([5]; Penetration ratio ELF:Plasma based on AUCmedian): 1.42 | concentration at 0.5 h [5, 10]: 1800 ng/mL | concentration at 1 h [5, 10]: 890 ng/mL | concentration at 2 h [5, 10]: 930 ng/mL | concentration at 4 h [5, 10]: 590 ng/mL | concentration at 8 h [5, 10]: 560 ng/mL | concentration at 12 h [5, 10]: 420 ng/mL | concentration at 24 h [5, 10]: 270 ng/mL | Kp at 0.5 h [5, 11]: 8.12 ± 5.95 | Kp at 1 h [5, 11]: 13.8 ± 7.38 | Kp at 2 h [5, 11]: 12.3 ± 6.57 | Kp at 4 h [5, 11]: 34.7 ± 15.1 | Kp at 8 h [5, 11]: 23.1 ± 11.2 | Kp at 12 h [5, 11]: 29 ± 8.78 | Kp at 24 h [5, 11]: 40.3 ± 10.3 | Kp at 0.5 h [5, 12]: 0.95 ± 0.56 | Kp at 1 h [5, 12]: 2.72 ± 1.26 | Kp at 2 h [5, 12]: 1.5 ± 0.61 | Kp at 4 h [5, 12]: 1.79 ± 0.49 | Kp at 8 h [5, 12]: 1.07 ± 0.45 | Kp at 12 h [5, 12]: 1.44 ± 0.57 | Kp at 24 h [5, 12]: 1.65 ± 0.86 | AUC ([5]; Total-drug AUC72-96, ELF (Median)): 18500 ng·h/mL | Kp ([5]; concentration in epithelial lining fluid relative to plasma): > 1.4 | Cmax ([5]; iv, 100 mg): 2260 ± 760 ng/mL | Vd ([5]; iv, 100 mg): 165 ± 58 L | Kp ([5]; mean concentration in alveolar cells relative to plasma): ~25 | Kp ([5]; mean concentration in epithelial lining fluid higher than in plasma): ≥ 0.4 | activity against SGM isolates (in words) [6]: MIC values above the highest concentration evaluated | MIC [7]: 4 µg/mL (≈ 7.19 µM)
